Reference: US10597388B2, “Pyridazinone herbicides” (FMC CORPORATION, priority 2014, dated 2020)

What was measured:
Format in all cases: in vivo
[1] = test system: barnyardgrass (Echinochloa crus-galli); test: Test A greenhouse herbicide test, pre- and postemergence
Procedure, shortened: (§1)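 Seeds in loam–sand blend received a preemergence directed soil spray; plants at 2–10 cm, one- to two-leaf stage, received postemergence sprays. Compounds in a non-phytotoxic solvent with surfactant. After about 10 d in a greenhouse, injury rated visually versus untreated controls on a 0–100 scale (100 = complete control).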

corn (Zea mays) = test: as above; conditions: Postemergence
Procedure, shortened: as §1

[2] = test system: foxtail, giant (giant foxtail, Setaria faberii); test: as above
Procedure, shortened: as §1

kochia (Kochia scoparia) = test: as above
Procedure, shortened: as §1

[3] = test system: pigweed (Amaranthus retroflexus); test: as above
Procedure, shortened: as §1

[4] = test system: ragweed (common ragweed, Ambrosia elatior); test: as above
Procedure, shortened: as §1

[5] = test system: ryegrass, Italian (Italian ryegrass, Lolium multiflorum); test: as above
Procedure, shortened: as §1

[6] = test system: wheat (Triticum aestivum); test: as above; conditions: Postemergence
Procedure, shortened: as §1

[7] = test system: johnsongrass (Sorghum halepense); test: Test C greenhouse herbicide test, pre- and postemergence
Source text: (§2) Seeds of plant species selected from blackgrass (Alopecurus myosuroides), ryegrass, Italian (Italian ryegrass, Lolium multiflorum), wheat (winter wheat, Triticum aestivum), galium (catchweed bedstraw, Galium aparine), corn (Zea mays), large crabgrass, large (large crabgrass, Digitaria sanguinalis), foxtail, giant (giant foxtail, Setaria faberii), johnsongrass (Sorghum halepense), lambsquarters (Chenopodium album), morningglory (Ipomoea coccinea), nutsedge, yellow (yellow nutsedge, Cyperus esculentus), pigweed (Amaranthus retroflexus), ragweed (common ragweed, Ambrosia elatior), soybean (Glycine max), barnyardgrass (Echinochloa crus-galli), oilseed rape (Brassica napus), waterhemp (common waterhemp, Amaranthus rudis), and velvetleaf (Abutilon theophrasti) were planted into a blend of loam soil and sand and treated preemergence with test chemicals formulated in a non-phytotoxic solvent mixture which included a surfactant.
(§3) At the same time, plants selected from these crop and weed species and also chickweed (common chickweed, Stellaria media), kochia (Kochia scoparia), and oat, wild (wild oat, Avena fatua), were planted in pots containing Redi-Earth® planting medium (Scotts Company, 14111 Scottslawn Road, Marysville, Ohio 43041) comprising spaghnum peat moss, vermiculite, wetting agent and starter nutrients and treated with postemergence applications of test chemicals formulated in the same manner. Plants ranged in height from 2 to 18 cm (1- to 4-leaf stage) for postemergence treatments. Treated plants and controls were maintained in a greenhouse for 13 to 15 d, after which time all species were compared to controls and visually evaluated. Plant response ratings, summarized in Table C, are based on a scale of 0 to 100 where 0 is no effect and 100 is complete control. A dash (-) response means no test result.

[8] = test system: waterhemp (common waterhemp, Amaranthus rudis); test: as above
Source text: as §2, §3

[9] = Postemergence, 125 g ai/ha, 0 to 100 scale where 0 is no effect and 100 is complete control
[10] = Postemergence, 500 g ai/ha, 0 to 100 scale, 0 is no effect, 100 is complete control
[11] = Preemergence, 125 g ai/ha, 0 to 100 scale where 0 is no effect and 100 is complete control
[12] = Preemergence, 500 g ai/ha, 0 to 100 scale where 0 is no effect and 100 is complete control
[13] = 125 g ai/ha, 0 to 100 scale where 0 is no effect and 100 is complete control
[14] = 500 g ai/ha, 0 to 100 scale, 0 is no effect, 100 is complete control
[15] = Postemergence, 125 g ai/ha, scale 0 to 100, 0 is no effect, 100 is complete control
[16] = Postemergence, 250 g ai/ha, scale 0 to 100, 0 no effect, 100 complete control, 13 to 15 d
[17] = Preemergence, 31 g ai/ha, scale 0 to 100, 0 is no effect, 100 is complete control
[18] = Preemergence, 62 g ai/ha, scale 0 to 100, 0 is no effect, 100 is complete control
[19] = Preemergence, 125 g ai/ha, scale 0 to 100, 0 is no effect, 100 is complete control
[20] = Preemergence, 250 g ai/ha, scale 0 to 100, 0 no effect, 100 complete control
[21] = postemergence, 62 g ai/ha, scale 0 to 100, 0 no effect, 100 complete control
[22] = 500 g ai/ha, visual rating after approx. 10 d, 0 to 100 scale (0 no effect, 100 complete control)
[23] = Postemergence, 500 g ai/ha, visual rating after approx. 10 d, 0 to 100 scale (0 no effect, 100 complete control)

Cc1sc2ccccc2c1-c1c(O)c(Cl)nn(C)c1=O [Compound 89]
Plant response rating, Barnyardgrass [1, 9]: 40 | Barnyardgrass plant response rating [1, 10]: 80 | Barnyardgrass plant response rating [1, 11]: 50 | Plant response rating, Barnyardgrass [1, 12]: 60 | Plant response rating, Corn (corn (Zea mays); [13]): 0 | Corn plant response rating (corn (Zea mays); [14]): 0 | Plant response rating, Foxtail, Giant [2, 9]: 70 | Foxtail, Giant plant response rating [2, 10]: 80 | Foxtail, Giant plant response rating [2, 11]: 50 | Plant response rating, Foxtail, Giant [2, 12]: 80 | Plant response rating, Kochia (kochia (Kochia scoparia); [9]): 80 | Kochia plant response rating (kochia (Kochia scoparia); [10]): 90 | Kochia plant response rating (kochia (Kochia scoparia); [11]): 70 | Plant response rating, Kochia (kochia (Kochia scoparia); [12]): 90 | Plant response rating, Pigweed [3, 9]: 80 | Pigweed plant response rating [3, 10]: 90 | Pigweed plant response rating [3, 11]: 100 | Plant response rating, Pigweed [3, 12]: 100 | Plant response rating, Ragweed [4, 9]: 80 | Ragweed plant response rating [4, 10]: 90 | Ragweed plant response rating [4, 11]: 80 | Plant response rating, Ragweed [4, 12]: 90 | Plant response rating, Ryegrass, Italian [5, 9]: 80 | Ryegrass, Italian plant response rating [5, 10]: 90 | Ryegrass, Italian plant response rating [5, 11]: 80 | Plant response rating, Ryegrass, Italian [5, 12]: 90 | Plant response rating, Wheat [6, 13]: 0 | Wheat plant response rating [6, 14]: 0 | Plant response rating, Johnsongrass [7, 15]: 0 | Plant response rating, Johnsongrass [7, 16]: 5 | Plant response rating, Johnsongrass [7, 17]: 0 | Plant response rating, Johnsongrass [7, 18]: 75 | Plant response rating, Johnsongrass [7, 19]: 0 | Johnsongrass plant response rating [7, 20]: 5 | Johnsongrass plant response rating [7, 21]: 0 | Plant response rating, Waterhemp [8, 15]: 50 | Plant response rating, Waterhemp [8, 16]: 50 | Plant response rating, Waterhemp [8, 17]: 75 | Plant response rating, Waterhemp [8, 18]: 50 | Plant response rating, Waterhemp [8, 19]: 40 | Waterhemp plant response rating [8, 20]: 75 | Waterhemp plant response rating [8, 21]: 40

COC(=O)Oc1cnn(C)c(=O)c1-c1c(C)sc2ccccc12 [Compound 97]
Plant response rating, Barnyardgrass [1, 9]: 30 | Barnyardgrass plant response rating [1, 10]: 90 | Barnyardgrass plant response rating [1, 11]: 20 | Plant response rating, Barnyardgrass [1, 12]: 100 | Plant response rating, Corn (corn (Zea mays); [13]): 10 | Plant response rating, Corn (corn (Zea mays); [22]): 70 | Plant response rating, Foxtail, Giant [2, 9]: 80 | Plant response rating, Foxtail, Giant [2, 23]: 100 | Foxtail, Giant plant response rating [2, 11]: 60 | Plant response rating, Foxtail, Giant [2, 12]: 100 | Plant response rating, Kochia (kochia (Kochia scoparia); [9]): 90 | Plant response rating, Kochia (kochia (Kochia scoparia); [23]): 100 | Kochia plant response rating (kochia (Kochia scoparia); [11]): 80 | Plant response rating, Kochia (kochia (Kochia scoparia); [12]): 100 | Plant response rating, Pigweed [3, 9]: 90 | Plant response rating, Pigweed [3, 23]: 100 | Pigweed plant response rating [3, 11]: 100 | Plant response rating, Pigweed [3, 12]: 100 | Plant response rating, Ragweed [4, 9]: 90 | Plant response rating, Ragweed [4, 23]: 100 | Ragweed plant response rating [4, 11]: 90 | Plant response rating, Ragweed [4, 12]: 100 | Plant response rating, Ryegrass, Italian [5, 9]: 100 | Plant response rating, Ryegrass, Italian [5, 23]: 100 | Ryegrass, Italian plant response rating [5, 11]: 100 | Plant response rating, Ryegrass, Italian [5, 12]: 100 | Plant response rating, Wheat [6, 13]: 20 | Plant response rating, Wheat [6, 22]: 80 | Plant response rating, Johnsongrass [7, 15]: 0 | Plant response rating, Johnsongrass [7, 16]: 5 | Plant response rating, Johnsongrass [7, 17]: 0 | Plant response rating, Johnsongrass [7, 18]: 0 | Plant response rating, Johnsongrass [7, 19]: 0 | Johnsongrass plant response rating [7, 20]: 0 | Johnsongrass plant response rating [7, 21]: 0 | Plant response rating, Waterhemp [8, 15]: 5 | Plant response rating, Waterhemp [8, 16]: 10 | Plant response rating, Waterhemp [8, 17]: 0 | Plant response rating, Waterhemp [8, 18]: 10 | Plant response rating, Waterhemp [8, 19]: 10 | Waterhemp plant response rating [8, 20]: 20 | Waterhemp plant response rating [8, 21]: 5
